Assay results taken from ChEMBL document CHEMBL1153720, “Three dimensional pharmacophore modelling for c-Kit receptor tyrosine kinase inhibitors” (Eur J Med Chem, 2010).

Target: Mast/stem cell growth factor receptor Kit (Homo sapiens, UniProt P10721)
Assay: Inhibition of c-Kit by HTRF method

Chain of Mast/stem cell growth factor receptor Kit (P10721 whole entry): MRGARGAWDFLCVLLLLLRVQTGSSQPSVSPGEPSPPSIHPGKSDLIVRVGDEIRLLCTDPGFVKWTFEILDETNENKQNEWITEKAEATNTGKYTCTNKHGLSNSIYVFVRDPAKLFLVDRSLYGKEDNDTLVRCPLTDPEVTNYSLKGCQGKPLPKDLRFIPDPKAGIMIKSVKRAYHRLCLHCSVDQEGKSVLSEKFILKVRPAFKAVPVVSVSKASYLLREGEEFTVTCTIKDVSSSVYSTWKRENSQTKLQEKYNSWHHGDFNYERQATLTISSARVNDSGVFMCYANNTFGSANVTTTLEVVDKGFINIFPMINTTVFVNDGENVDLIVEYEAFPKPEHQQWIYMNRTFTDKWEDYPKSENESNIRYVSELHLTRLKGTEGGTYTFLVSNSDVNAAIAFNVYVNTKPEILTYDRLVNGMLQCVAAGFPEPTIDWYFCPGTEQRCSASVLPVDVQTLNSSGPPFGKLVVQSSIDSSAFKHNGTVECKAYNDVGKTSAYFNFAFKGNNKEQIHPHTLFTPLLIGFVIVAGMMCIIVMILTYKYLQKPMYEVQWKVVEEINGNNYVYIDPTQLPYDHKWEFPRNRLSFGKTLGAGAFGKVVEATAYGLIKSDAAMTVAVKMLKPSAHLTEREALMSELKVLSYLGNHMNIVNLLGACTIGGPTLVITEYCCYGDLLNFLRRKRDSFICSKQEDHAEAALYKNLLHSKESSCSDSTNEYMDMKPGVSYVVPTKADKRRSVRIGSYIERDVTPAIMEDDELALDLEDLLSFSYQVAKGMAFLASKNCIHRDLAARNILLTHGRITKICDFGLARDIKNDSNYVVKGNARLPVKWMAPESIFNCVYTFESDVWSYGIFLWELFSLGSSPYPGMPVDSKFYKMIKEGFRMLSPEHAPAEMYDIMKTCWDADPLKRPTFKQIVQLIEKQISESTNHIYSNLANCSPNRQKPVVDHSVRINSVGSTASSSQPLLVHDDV

Cc1ccccc1NC(=O)Nc1ccc(-c2c(C)sc3ncnc(N)c23)c(Cl)c1
IC50: 0.2 µM
